According to publication PMC6009881, “New sulfurated derivatives of cinnamic acids and rosmaricine as inhibitors of STAT3 and NF-κB transcription factors” (Journal of Enzyme Inhibition and Medicinal Chemistry, 2017):

Assays:
[1] = molecular target: STAT3-SH2 domain (Homo sapiens, UniProt P40763); assay: STAT AlphaScreen-based assay (STAT3); type: binding; settings: for IC50: read-out: STAT3 IC50 ±SD; for inhibition at 30 µM: read-out: STAT3 % inhibition ± SD at 30 μM
[2] = test system: NF-κB promoter activity in HCT-116 cells; assay: Luciferase reported NF-κB promoter activity assay; type: cell-based; settings: Homo sapiens, 2 h pre-treatment, TNF-α 10 ng/ml, NA = not active up to 100 μM, read-out: NF-κB promoter assay (HCT-116) IC50 ±SD
Method: To measure the NF-κB promoter activity, HCT-116 cells were seeded in 100 mm dish and transiently transfected with 6 μg of DNA (NF-κB plasmid, containing luciferase reporter gene[57] with turbofect reagent (Carlo Erba Reagents). After 24 h, cells were seeded in 48-well plates (40.000 cells per well). On the next day, cells were incubated with our compounds for 2 h (pre-treatment) and then TNF-α was added in every well at (10 ng/ml). After 5–6 h, luciferase activity was measured by using Neolite reagent (PerkinElmer Life Sciences, Waltham, MA) according to the manufacturer’s instructions.

[3] = test system: HCT-116 cells; assay: MTT assay, cytotoxicity on HCT-116; type: cell-based, human; settings: MTT assay, 48 h, NA = not active up to 100 μM, read-out: Cytotoxicity (HCT-116) IC50 ±SD; for IC50 at 48 h: human, HCT-116 cells
Method: Following the same protocol used for previous cytotoxicity assays by N. Ferri[55], cells were seeded in 48-well plate (40.000 cells/well) and, after 24 h, they were incubated with different concentrations of our compounds for 48 h.
The determination of the conversion of MTT (3-(4,5-dimethyl-2-thiazolyl)-2,5-diphenyl-2H-tetrazolium bromide) to formazan was determined by using a commercially available kit (Millipore, Billerica, MA), according to the manufacturer’s instructions.

[4] = test system: STAT3 reporter activity in HeLa cells; assay: STAT3 luciferase reporter gene assay; type: cell-based; settings: Homo sapiens, 2 h pretreatment, oncostatin M 10 ng/ml 4 h, read-out: STAT3 reporter assay (HeLa) IC50 ±SD
Method: STAT3 reporter HeLa stable cell lines (Signosis Inc, Santa Clara, CA) were incubated in a 96-well microplate for 24 h. Cells were pretreated with test compounds for 2 h, and 10 ng/ml (w/v) of oncostatin M were applied and incubated for 4 h. Cells were washed with medium not supplemented with phenol red, and Steady-Glo® reagent (Promega, Madison, WI) was applied. After 15 min incubation, the signals were detected by ARVO Light 1420 (PerkinElmer Life Sciences, Waltham, MA). The relative signal intensity was calculated in each well as the ratio for the mean signal of vehicle.

[5] = molecular target: T1, SH2-domain of STAT1 (Homo sapiens, UniProt P42224); assay: STAT AlphaScreen-based assay (STAT1 selectivity); type: binding; settings: for inhibition at 30 µM: read-out: STAT1 % inhibition ± SD at 30 μM, 30 μM; for IC50: read-out: STAT1 IC50 ±SD
T1 sequence (P42224 1-750): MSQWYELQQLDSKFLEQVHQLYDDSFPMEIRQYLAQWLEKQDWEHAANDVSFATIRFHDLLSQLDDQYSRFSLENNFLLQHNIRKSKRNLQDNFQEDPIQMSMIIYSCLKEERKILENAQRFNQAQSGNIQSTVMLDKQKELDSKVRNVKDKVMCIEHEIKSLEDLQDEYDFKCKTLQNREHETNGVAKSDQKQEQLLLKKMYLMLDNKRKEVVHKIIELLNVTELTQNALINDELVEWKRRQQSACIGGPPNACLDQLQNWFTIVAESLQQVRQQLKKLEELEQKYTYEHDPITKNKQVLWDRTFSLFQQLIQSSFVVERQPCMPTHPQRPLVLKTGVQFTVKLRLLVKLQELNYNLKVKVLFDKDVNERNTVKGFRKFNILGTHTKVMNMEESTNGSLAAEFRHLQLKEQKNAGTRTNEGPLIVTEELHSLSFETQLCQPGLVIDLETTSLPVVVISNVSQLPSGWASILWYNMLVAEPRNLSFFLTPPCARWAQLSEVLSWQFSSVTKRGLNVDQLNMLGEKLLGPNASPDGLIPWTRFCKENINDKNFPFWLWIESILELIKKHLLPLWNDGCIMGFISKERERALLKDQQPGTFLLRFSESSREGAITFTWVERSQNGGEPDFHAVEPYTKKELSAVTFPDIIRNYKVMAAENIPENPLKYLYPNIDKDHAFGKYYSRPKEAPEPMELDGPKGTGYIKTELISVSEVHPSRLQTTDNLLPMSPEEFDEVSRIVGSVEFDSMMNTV
Method: STAT3 inhibitory activity of the described compounds was tested by the AlphaScreen-based assay to evaluate the potential inhibition of the interaction between STAT3-SH2 domain and pTyr-containing peptides according to the previously reported procedure. For the most interesting compounds, selectivity tests versus STAT1 were performed.
The new sulfurated-drug hybrids, together with their parent compounds have been submitted to the AlphaScreen-based assay, to investigate their ability to bind STAT3 directly, through the evaluation of the inhibition of the binding of SH2-containing proteins to their correspondent phosphopeptides, the physiological ligands. […] Since AlphaScreen is a cell-free assay, not always there is a correspondence between the potency of STAT3 inhibition and cytotoxicity, probably due to not optimal physicochemical properties of the tested compounds, such as solubility and chemical stability in the culture medium and cell permeation.

STAT3-SH2 domain, sequence (P40763 whole entry, the tested form may be a part): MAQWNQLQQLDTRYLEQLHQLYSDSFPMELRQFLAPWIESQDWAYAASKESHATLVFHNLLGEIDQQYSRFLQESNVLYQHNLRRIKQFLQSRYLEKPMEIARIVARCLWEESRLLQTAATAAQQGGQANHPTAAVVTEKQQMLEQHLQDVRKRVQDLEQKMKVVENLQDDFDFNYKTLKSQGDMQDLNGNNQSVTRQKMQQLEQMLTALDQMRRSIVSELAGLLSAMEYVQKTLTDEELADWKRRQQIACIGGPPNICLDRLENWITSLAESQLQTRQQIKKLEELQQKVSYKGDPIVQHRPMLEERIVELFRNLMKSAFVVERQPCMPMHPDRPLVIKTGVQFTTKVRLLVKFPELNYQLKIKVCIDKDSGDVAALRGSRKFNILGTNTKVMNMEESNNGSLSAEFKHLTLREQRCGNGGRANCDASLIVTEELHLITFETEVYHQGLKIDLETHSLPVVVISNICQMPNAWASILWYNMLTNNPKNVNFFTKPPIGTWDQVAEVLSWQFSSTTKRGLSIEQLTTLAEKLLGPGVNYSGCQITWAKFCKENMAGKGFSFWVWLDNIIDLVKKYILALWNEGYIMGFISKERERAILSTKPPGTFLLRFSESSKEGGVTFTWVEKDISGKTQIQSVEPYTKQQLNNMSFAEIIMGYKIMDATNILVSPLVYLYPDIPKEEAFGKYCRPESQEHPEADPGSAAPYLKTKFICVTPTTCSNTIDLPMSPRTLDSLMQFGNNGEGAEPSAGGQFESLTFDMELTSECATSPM

| Compound | IC50 ([1]; AlphaScreen assay) [µM] | inhibition at 30 µM ([1]; AlphaScreen assay) [%] | IC50 [2] [µM] | IC50 at 48 h [3] [µM] | STAT3 IC50 ±SD ([1]; AlphaScreen assay) | melting point | IC50 [4] [µM] | inhibition at 30 µM [5] [%] | IC50 [5] [µM] | IC50 [3] [µM] | fold more selective for STAT3 versus STAT1 ([1]; in comparison to 15 and 26) [fold] | fold increase of inhibitory potency on STAT3 ([1]; in comparison to rosmaricine) [fold] |
| --- | --- | --- | --- | --- | --- | --- | --- | --- | --- | --- | --- | --- |
| Oc1ccc(-c2cc(=S)ss2)cc1 [Compound 5, 5-(4-hydroxyphenyl)-1,2-dithiol-3-thione] | > 30 | 43.7 | 36.7 ± 11.4 | 71.2 ± 15 | – | – | – | – | – | – | – | – |
| CS(=O)(=O)CCCCC(=O)O [Compound 8, 5-(Methylsulfonyl)pentanoic acid] | > 30 | 3.8 ± 2.8 | – | – | loss of activity on STAT3 | 111.3 to 112.8 °C | – | – | – | – | – | – |
| O=C(O)c1ccc(-c2cssc2=S)cc1 [Compound 11, 4-(3-thioxo-3H-1,2-dithiol-4-yl)benzoic acid] | > 100 | -1.2 ± 6 | – | – | – | – | > 100 | – | – | – | – | – |
| COc1cc(/C=C/C(=O)OCCSS(C)(=O)=O)ccc1O [Compound 14, (E)-2-(methylsulfonylthio)ethyl 3-(4-hydroxy-3-methoxyphenyl)acrylate] | 0.9 | 110.1 ± 0.2 | 116 ± 2.9 | 50.4 ± 5.9 | – | – | 65.4 ± 1 | 110.5 ± 0.6 | 7 ± 0.7 | – | – | – |
| COc1cc(/C=C/C(=O)OCCCCSS(C)(=O)=O)ccc1O [Compound 15, (E)-4-(methylsulfonylthio)butyl 3-(4-hydroxy-3-methoxyphenyl)acrylate] | 0.3 | 100 ± 0.1 | 94 ± 4.6 | 64.4 ± 9.1 | – | – | 57.5 ± 1.1 | 86 ± 6.7 | 1.8 ± 0.4 | – | – | – |
| COC(=O)/C=C/c1ccc(O)c(O)c1 [Compound 20, (E)-methyl 3-(3,4-dihydroxyphenyl)acrylate] | > 30 | 12.8 ± 1.1 | – | 90.8 | – | – | – | – | – | – | – | – |
| CS(=O)(=O)SCCOC(=O)/C=C/c1ccc(O)c(O)c1 [Compound 21, (E)-2-(methylsulfonylthio)ethyl 3-(3,4-dihydroxyphenyl)acrylate] | 0.8 ± 0.2 | 100.1 ± 0.1 | 128 ± 8.9 | 123 ± 17.3 | – | 133.1 to 134.8 °C | 60.6 ± 2.8 | 85.7 ± 4.3 | 17 ± 1.2 | – | – | – |
| C=CCSSCCOC(=O)/C=C/c1ccc(O)c(O)c1 [Compound 23, (E)-2-(allyldisulfanyl)ethyl 3-(3,4-dihydroxyphenyl)acrylate] | 5.5 ± 0.2 | 70 ± 1.7 | 163 ± 11.1 | 73 ± 8 | – | – | 94.4 ± 26.1 | 37.7 ± 7.5 | > 30 | – | – | – |
| O=C(/C=C/c1ccc(O)c(O)c1)Oc1ccc(-c2cc(=S)ss2)cc1 [Compound 24, (E)-4-(3-thioxo-3H-1,2-dithiol-5-yl)phenyl 3-(3,4-dihydroxyphenyl)acrylate] | 13.2 ± 0.9 | 66.7 ± 0.5 | 40.6 ± 3 | 46.7 | – | 199.5 to 201.5 °C | 40 ± 1.5 | 21.5 ± 1.8 | > 30 | 46.7 ± 4.1 | – | – |
| CS(=O)(=O)SCCOC(=O)C=Cc1ccccc1 [Compound 25, 2-(Methylsulfonylthio)ethyl cinnamate] | 0.5 | 100 | – | 95.2 ± 8.9 | – | 76.8 to 78.5 °C | 72.5 ± 4.4 | 100.3 ± 0.2 | 3.6 ± 0.4 | – | – | – |
| CS(=O)(=O)SCCOC(=O)/C=C/c1ccc(Cl)c(Cl)c1 [Compound 26, (E)-2-(methylsulfonylthio)ethyl 3-(3,4-dichlorophenyl)acrylate] | 0.3 | 100 ± 0.1 | – | – | – | 69.6 to 71.2 °C | – | 104 ± 1.7 | 1.9 ± 0.2 | – | – | – |
| COc1ccc(/C=C/C(=O)OCCSS(C)(=O)=O)cc1OC [Compound 27, (E)-2-((methylsulfonyl)thio)ethyl 3-(3,4-dimethoxyphenyl)acrylate] | 0.3 | 99.7 ± 0.1 | – | – | – | 99.8 to 102.7 °C | – | 68.9 ± 10.2 | 20.9 ± 4.9 | – | 10 | – |
| COCCOCOc1ccc(/C=C/C(=O)OCCSS(C)(=O)=O)cc1OCOCCOC [Compound 28, (E)-2-(methylsulfonylthio)ethyl 3-(3,4-bis((2-methoxyethoxy)methoxy)phenyl)acrylate] | 0.6 ± 0.1 | 100 ± 0.1 | – | – | – | – | – | 98.4 ± 0.9 | 6.3 ± 0.5 | – | – | – |
| COCCOCOc1ccc(/C=C/C(=O)NCCSS(C)(=O)=O)cc1OCOCCOC [Compound 29, (E)-S-2-(3-(3,4-bis((2-methoxyethoxy)methoxy)phenyl)acrylamido)ethyl methanesulfonothioate] | 1.1 | 100.1 ± 0.1 | – | – | – | 62.3 to 64.6 °C | – | 63.3 ± 0.5 | 19.5 ± 0.3 | – | – | – |
| CC(C)c1cc2c(c(O)c1O)C13CCCC(C)(C)C1C(OC3=O)C2NC(=O)CCCCSS(C)(=O)=O (stereo not shown) [Compound 31, N-[5-(methylsulfonyl)thiopentanoyl]rosmaricine] | 0.2 | 100.1 ± 0.1 | 53.3 ± 10.9 | 73.8 ± 0.9 | – | 121.1 to 124.2 °C (dec.) | > 100 | 99.9 ± 0.3 | 2.8 ± 0.1 | – | – | 10 |
